This is an account of results in paper PMC3569412, “In Vivo Imaging with Fluorescent Smart Probes to Assess Treatment Strategies for Acute Pancreatitis” (PLoS ONE, 2013).

A value given as a limit tells only on which side of the number the result lay.

Assay [1] concerns rat caerulein-injection pancreatitis model. The assay can be described thus: in vivo edema imaging with blood pool agent Angiosense 680. As to conditions: Camostat 300 mg/kg orally; three caerulein doses SC.
Assay [2] concerns trypsin activity in rat pancreas. Nature of the assay: in vivo optical imaging of activatable probe signal in pancreas, caerulein-injection pancreatitis model. As to conditions: Camostat 300 mg/kg orally; vs untreated caerulein animals; P<0.001. On the procedure: 280–320 g female Sprague Dawley rats were received from Charles Rivers Laboratory. Animals were maintained in a facility with a controlled temperature (21–24°C) and lighting (12∶12 h light: dark cycle). Animals were placed on a chlorophyll-free diet (Harlan TK2916) 10 days prior and for the duration of the imaging study to reduce the amount of autofluorescence and had free access to drinking water. One day prior to the experiment, animals were shaved at the abdomen for imaging studies. The pancreatitis model was induced by hyperstimulation with the cholecystokinin (CCK) analog caerulein (Sigma-Aldrich, St. Louis, MO). […]
(§1) In vivo optical imaging studies were conducted using a spectral imaging system, Maestro (Perkin Elmer, Boston, MA). […] Animals were imaged before the start of the study for background/autofluorescence, and at 20 minutes after the mPEG-PL-Cy5.5 probe administration for basal increase in fluorescence due to probe administration. […]
Region of the pancreas and liver were determined and defined from whole body clean images acquired after sacrificing the animals, and used on all corresponding in vivo images in the same animal. Fluorescent intensity at various time points from the same animal were normalized by fluorescence intensity determined before the start of the caerulein insult and the change in signal intensity was then plotted as a function of time.

Assay [3] deals with trypsin. Nature of the assay: assessment of trypsin concentration in pancreas extracts. Type of assay: in vivo, rat. The conditions noted are these: Camostat 300 mg/kg orally; vs untreated saline animals. The method, then:
The pancreas was removed from the euthanized animals, weighted and transferred into Dispomix tubes (Miltenyi Biotec, Bergisch Gladbach, Germany). After the addition of ice-cold PBS buffer (1 µl per […]), the pancreas was homogenized with a gentleMACS™ Dissociator (Miltenyi Biotec, Bergisch Gladbach, Germany). The homogenate was centrifuged at 4°C and 20,000 g for 10 min. The supernatant was stored at −20°C. The activity assay was performed at room temperature in 384-well plates in a total assay volume of 20 µl per well. For fluorescence quantification a Safire2 (Tecan, Maennedorf, Switzerland) instrument was used with fluorescence excitation and emission wavelengths of 485 nm and 535 nm, respectively. 10 µl of dilutions of extracts (typical range: 1∶500 to 1∶2,000) were transferred to 384 well assay plates. […] The enzymatic activity in the pancreatic extract was obtained from the linear progression curves and determined after one hour. Signal-to-background (S/B) values within the linear range of the assay signal were selected to calculate the trypsin concentrations of the extract analyzed. […] The amount of trypsin was calculated by transforming S/B levels obtained in the activity assay of extract dilutions fulfilling initial enzyme velocity criteria into trypsin concentration values via a calibration curve using recombinant rat trypsin S1-94.

In the next assay the target is h cathepsin K (Homo sapiens, UniProt P43235). The assay can be described thus: protease selectivity panel, enzyme activity assay. The format is biochemical. The conditions noted are these: 1 h pre-incubation RT. The source says: (§2) The three drug-like compounds tested in the optical molecular imaging model were characterized for selectivity against a panel of recombinant proteases available at Novartis. The biochemical enzyme activity assays were based on the cleavage of peptidic substrates that are fluorescently labeled. In case of rhodamine-110 label fluorescence intensity and in case of PT14 label fluorescence lifetime was used as readout. The effect of the compound on the enzymatic activity was obtained from the linear part of the substrate cleavage progress curve at substrate concentrations well below KM, typically at 1 µM. All enzyme assays were conducted in 384-well plates with a final assay volume of 25 µl. Enzyme and compound (11 different concentrations from 100 µM to 0.0003 µM) were pre-incubated for one hour at room temperature (RT). Subsequently substrate was added and incubated for 1 h at RT prior to measurement.

Another assay concerns the target h factor Xa (Homo sapiens, UniProt P00742). Nature of the assay: protease selectivity panel, enzyme activity assay. The format is biochemical. As to conditions: 1 h pre-incubation RT.
From the text: as §2

The target of another assay is h cathepsin S (Homo sapiens, UniProt P25774). The assay can be described thus: protease selectivity panel, enzyme activity assay. The format is biochemical. The conditions noted are these: 1 h pre-incubation RT.
From the text: as §2

A further assay deals with h cathepsin B (Homo sapiens, UniProt P07858). Nature of the assay: protease selectivity panel, enzyme activity assay. The format is biochemical. As to conditions: 1 h pre-incubation RT.
From the text: as §2

In the next assay the target is h factor VIIa (Homo sapiens, UniProt P08709). Nature of the assay: protease selectivity panel, enzyme activity assay. The format is biochemical. The conditions noted are these: 1 h pre-incubation RT.
From the text: as §2

Another assay deals with h kallikrein 1 (Homo sapiens, UniProt P06870). The assay can be described thus: protease selectivity panel, enzyme activity assay. Type of assay: biochemical. As to conditions: 1 h pre-incubation RT.
From the text: as §2

For the next assay, the target named is h neutrophil elastase (Homo sapiens, UniProt P08246). Nature of the assay: protease selectivity panel, enzyme activity assay. Type of assay: biochemical. The conditions noted are these: 1 h pre-incubation RT.
From the text: as §2

The target in another assay is h cathepsin C (Homo sapiens, UniProt P53634). The assay can be described thus: protease selectivity panel, enzyme activity assay. Type of assay: biochemical. The conditions noted are these: 1 h pre-incubation RT.
From the text: as §2

The target of another assay is h cathepsin G (Homo sapiens, UniProt P08311). The assay can be described thus: protease selectivity panel, enzyme activity assay. Type of assay: biochemical. As to conditions: 1 h pre-incubation RT.
From the text: as §2

Another assay has as its target h plasma kallikrein (Homo sapiens, UniProt P03952). Nature of the assay: protease selectivity panel, enzyme activity assay. The format is biochemical. The conditions noted are these: 1 h pre-incubation RT.
From the text: as §2

The target in another assay is h kallikrein 7 (Homo sapiens, UniProt P49862). Nature of the assay: protease selectivity panel, enzyme activity assay. The format is biochemical. The conditions noted are these: 1 h pre-incubation RT.
From the text: as §2

A further assay deals with h cathepsin L (Homo sapiens, UniProt P07711). The assay can be described thus: protease selectivity panel, enzyme activity assay. Type of assay: biochemical. As to conditions: 1 h pre-incubation RT.
From the text: as §2

The target of another assay is h factor XIIa (Homo sapiens, UniProt P00748). Nature of the assay: protease selectivity panel, enzyme activity assay. The format is biochemical. The conditions noted are these: 1 h pre-incubation RT.
From the text: as §2

For the next assay, the target named is h matriptase (Homo sapiens, UniProt Q9Y5Y6). The assay can be described thus: protease selectivity panel, enzyme activity assay. Type of assay: biochemical. The conditions noted are these: 1 h pre-incubation RT.
From the text: as §2

For the next assay, the target named is h chymase (Homo sapiens, UniProt P23946). The assay can be described thus: protease selectivity panel, enzyme activity assay. Type of assay: biochemical. As to conditions: 1 h pre-incubation RT.
From the text: as §2

The target in another assay is h proteinase 3 (Homo sapiens, UniProt P24158). The assay can be described thus: protease selectivity panel, enzyme activity assay. Type of assay: biochemical. The conditions noted are these: 1 h pre-incubation RT.
From the text: as §2

The target in the next assay is h cationic trypsin (Homo sapiens, UniProt P07477). Nature of the assay: protease selectivity panel, enzyme activity assay. The format is biochemical. The conditions noted are these: 1 h pre-incubation RT.
From the text: as §2

In another assay the target is h kallikrein 5 (Homo sapiens, UniProt Q9Y337). Nature of the assay: protease selectivity panel, enzyme activity assay. The format is biochemical. As to conditions: 1 h pre-incubation RT.
From the text: as §2

For another assay, the target named is h factor XIa (Homo sapiens, UniProt P03951). Nature of the assay: protease selectivity panel, enzyme activity assay. As to conditions: 1 h pre-incubation RT. The format is biochemical.
From the text: as §2

A further assay has as its target h chymotrypsin. The assay can be described thus: protease selectivity panel, enzyme activity assay. As to conditions: 1 h pre-incubation RT. The format is biochemical, human.
From the text: as §2

In another assay the target is h pancreatic elastase. Nature of the assay: protease selectivity panel, enzyme activity assay. Type of assay: biochemical, human. As to conditions: 1 h pre-incubation RT.
From the text: as §2

Assay [4] has as its system trypsin activity in rat pancreas. The assay can be described thus: ex vivo fluorescence imaging of excised pancreas (total signal intensity of activated probe). As to conditions: Camostat 300 mg/kg orally; vs untreated animals; P<0.01. Type of assay: in vivo. On the procedure: 280–320 g female Sprague Dawley rats were received from Charles Rivers Laboratory. Animals were maintained in a facility with a controlled temperature (21–24°C) and lighting (12∶12 h light: dark cycle). Animals were placed on a chlorophyll-free diet (Harlan TK2916) 10 days prior and for the duration of the imaging study to reduce the amount of autofluorescence and had free access to drinking water. One day prior to the experiment, animals were shaved at the abdomen for imaging studies. The pancreatitis model was induced by hyperstimulation with the cholecystokinin (CCK) analog caerulein (Sigma-Aldrich, St. Louis, MO). […] For studies with Novartis166 and Novartis848, varying concentrations, in a solution, were administered intraperitonealy (IP) only once, one hour before caerulein administration. Self-quenched protease activatable mPEG-PL-Cy5.5 probe was administered to all animals via the tail vein at a dose of 80 nmol/kg 40 minutes prior to the start of caerulein administration for measuring the amount of activated trypsin in the pancreas. […]
as §1

The subject of assay [5] is trypsin. Nature of the assay: mPEG-PL-Cy5.5 probe activation by pancreatic enzymes with or without SPINK1. Type of assay: biochemical. As to conditions: 0.2 µM probe, 100 nM enzyme, 1 µM SPINK1. The method, then: All enzyme assays were conducted in 384-well plates with a final substrate ( = mPEG-PL-Cy5.5 probe) concentration of 0.2 µM diluted in the appropriate assay buffer in a final assay volume of 25 µl. Enzyme and, in cases where applied, SPINK-1 (final assay concentration: 1 µM) were pre-incubated for one hour at room temperature. Subsequently substrate was added and incubated for 3 h at 37°C prior to measurement. All enzymes were either commercially obtained or prepared as described previously, [17], [18], [19].
Enzyme, SPINK-1 and substrate solutions were transferred to 384-well plates by means of a CyBi Well pipettor (CyBio, Jena, Germany). Plate measurements were conducted by the means of a Safire2 microplate reader (TECAN, Maennedorf, Switzerland) and wavelengths of 680 nm and 700 nm were taken for fluorescence excitation and emission acquisition, respectively. The bandwidths were set to 10 nm in both the excitation and the emission path. The fluorescence in each well was excited by three flashes per measurement.

Sequence of h proteinase 3 (P24158 28-256): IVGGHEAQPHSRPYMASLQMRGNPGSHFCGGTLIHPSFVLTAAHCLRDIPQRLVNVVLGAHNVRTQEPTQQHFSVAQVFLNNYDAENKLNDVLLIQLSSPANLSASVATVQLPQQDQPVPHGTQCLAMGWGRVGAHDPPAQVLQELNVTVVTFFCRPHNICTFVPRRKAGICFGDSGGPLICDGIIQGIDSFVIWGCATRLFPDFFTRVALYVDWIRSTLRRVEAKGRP
Sequence of h kallikrein 7 (P49862 30-253): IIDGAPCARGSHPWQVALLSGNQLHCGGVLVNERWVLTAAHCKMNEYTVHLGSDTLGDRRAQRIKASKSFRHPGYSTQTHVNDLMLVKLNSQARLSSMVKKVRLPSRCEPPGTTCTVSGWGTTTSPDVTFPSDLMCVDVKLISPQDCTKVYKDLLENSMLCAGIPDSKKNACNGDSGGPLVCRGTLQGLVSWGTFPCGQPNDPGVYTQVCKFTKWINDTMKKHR
Sequence of h cathepsin G (P08311 21-255): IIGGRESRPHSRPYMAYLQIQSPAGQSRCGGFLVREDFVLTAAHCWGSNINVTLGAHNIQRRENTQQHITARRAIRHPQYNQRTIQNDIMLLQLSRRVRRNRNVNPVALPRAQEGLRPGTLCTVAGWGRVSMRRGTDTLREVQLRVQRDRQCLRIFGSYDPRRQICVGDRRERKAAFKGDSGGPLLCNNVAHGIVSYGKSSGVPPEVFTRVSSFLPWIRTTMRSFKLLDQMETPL
Sequence of h factor XIIa (P00748 373-615 limits assumed): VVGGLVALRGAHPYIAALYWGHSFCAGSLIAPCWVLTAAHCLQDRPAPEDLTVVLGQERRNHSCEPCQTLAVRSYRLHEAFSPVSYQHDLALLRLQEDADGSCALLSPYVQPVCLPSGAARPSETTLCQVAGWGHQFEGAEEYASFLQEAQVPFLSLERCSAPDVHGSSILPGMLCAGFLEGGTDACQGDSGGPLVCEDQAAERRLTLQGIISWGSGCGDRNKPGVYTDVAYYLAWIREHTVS
Sequence of h plasma kallikrein (P03952 20-638): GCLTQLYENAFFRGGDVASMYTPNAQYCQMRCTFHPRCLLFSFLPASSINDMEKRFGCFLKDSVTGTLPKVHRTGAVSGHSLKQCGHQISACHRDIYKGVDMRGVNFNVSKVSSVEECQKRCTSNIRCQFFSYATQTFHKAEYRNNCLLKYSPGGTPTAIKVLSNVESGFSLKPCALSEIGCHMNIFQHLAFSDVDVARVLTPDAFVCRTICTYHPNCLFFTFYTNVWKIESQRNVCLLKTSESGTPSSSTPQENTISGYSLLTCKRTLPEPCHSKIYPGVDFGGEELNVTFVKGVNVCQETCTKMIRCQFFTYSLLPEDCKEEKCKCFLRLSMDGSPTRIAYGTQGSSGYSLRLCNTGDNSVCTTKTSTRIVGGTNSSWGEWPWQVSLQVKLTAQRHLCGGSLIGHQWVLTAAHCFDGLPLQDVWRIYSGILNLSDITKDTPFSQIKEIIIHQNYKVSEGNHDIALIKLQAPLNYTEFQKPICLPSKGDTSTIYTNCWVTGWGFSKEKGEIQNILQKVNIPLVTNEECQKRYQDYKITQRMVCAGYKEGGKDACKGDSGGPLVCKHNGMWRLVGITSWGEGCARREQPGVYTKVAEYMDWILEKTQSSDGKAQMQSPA
Sequence of h kallikrein 5 (Q9Y337 23-293): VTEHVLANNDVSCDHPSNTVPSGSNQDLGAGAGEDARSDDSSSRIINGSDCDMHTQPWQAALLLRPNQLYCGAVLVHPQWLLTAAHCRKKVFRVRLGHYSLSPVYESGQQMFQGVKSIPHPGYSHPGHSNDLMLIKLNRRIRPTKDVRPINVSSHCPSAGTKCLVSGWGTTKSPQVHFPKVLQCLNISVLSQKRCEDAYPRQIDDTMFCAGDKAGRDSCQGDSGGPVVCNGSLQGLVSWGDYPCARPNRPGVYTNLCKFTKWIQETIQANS
Sequence of h factor XIa (P03951 388-625 limits assumed): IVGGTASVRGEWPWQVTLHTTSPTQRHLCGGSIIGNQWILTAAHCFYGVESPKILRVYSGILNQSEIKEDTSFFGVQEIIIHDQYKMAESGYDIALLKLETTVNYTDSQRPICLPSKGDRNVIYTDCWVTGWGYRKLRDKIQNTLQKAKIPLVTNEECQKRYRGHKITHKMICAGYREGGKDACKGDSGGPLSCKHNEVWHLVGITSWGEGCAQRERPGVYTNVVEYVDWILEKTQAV
Sequence of h cathepsin S (P25774 115-331): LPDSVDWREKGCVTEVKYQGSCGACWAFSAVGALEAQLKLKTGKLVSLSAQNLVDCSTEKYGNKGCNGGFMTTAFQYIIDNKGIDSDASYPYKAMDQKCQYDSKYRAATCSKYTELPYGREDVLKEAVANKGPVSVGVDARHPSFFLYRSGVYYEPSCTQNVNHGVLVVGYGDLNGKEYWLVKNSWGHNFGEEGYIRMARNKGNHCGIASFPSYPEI
Sequence of h kallikrein 1 (P06870 25-262): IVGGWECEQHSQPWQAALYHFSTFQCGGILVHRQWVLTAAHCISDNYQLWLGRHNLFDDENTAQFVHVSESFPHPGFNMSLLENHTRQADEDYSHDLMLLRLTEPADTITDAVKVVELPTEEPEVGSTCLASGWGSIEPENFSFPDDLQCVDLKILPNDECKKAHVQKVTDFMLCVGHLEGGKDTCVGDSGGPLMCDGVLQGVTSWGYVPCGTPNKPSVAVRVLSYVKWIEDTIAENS
Sequence of h factor VIIa (P08709 213-466 limits assumed): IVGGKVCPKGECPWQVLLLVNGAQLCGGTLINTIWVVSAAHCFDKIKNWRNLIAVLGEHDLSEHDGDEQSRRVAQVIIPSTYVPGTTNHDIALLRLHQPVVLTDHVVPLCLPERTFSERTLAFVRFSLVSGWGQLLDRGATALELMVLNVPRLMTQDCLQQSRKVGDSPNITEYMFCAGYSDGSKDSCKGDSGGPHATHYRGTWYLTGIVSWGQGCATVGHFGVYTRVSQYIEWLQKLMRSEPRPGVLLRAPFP
Sequence of h factor VIIa (P08709 61-212 partner limits assumed): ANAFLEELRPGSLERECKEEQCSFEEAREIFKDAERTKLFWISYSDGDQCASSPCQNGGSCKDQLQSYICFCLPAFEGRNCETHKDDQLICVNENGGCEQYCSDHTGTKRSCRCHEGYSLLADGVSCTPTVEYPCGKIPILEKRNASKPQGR
Sequence of h cathepsin K (P43235 115-329): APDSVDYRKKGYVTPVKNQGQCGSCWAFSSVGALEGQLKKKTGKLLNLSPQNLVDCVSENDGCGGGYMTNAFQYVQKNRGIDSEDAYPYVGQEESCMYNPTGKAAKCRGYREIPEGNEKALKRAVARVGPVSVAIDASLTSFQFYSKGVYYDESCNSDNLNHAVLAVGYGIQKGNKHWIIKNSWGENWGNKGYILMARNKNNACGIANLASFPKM
Sequence of h cathepsin L (P07711 114-333): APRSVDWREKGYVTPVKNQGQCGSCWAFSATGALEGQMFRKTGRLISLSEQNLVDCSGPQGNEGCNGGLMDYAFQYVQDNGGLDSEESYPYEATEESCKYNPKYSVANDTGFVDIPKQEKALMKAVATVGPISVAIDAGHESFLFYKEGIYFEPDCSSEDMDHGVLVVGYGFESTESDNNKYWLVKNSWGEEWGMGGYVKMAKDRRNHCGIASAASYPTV
Sequence of h matriptase (Q9Y5Y6 whole entry): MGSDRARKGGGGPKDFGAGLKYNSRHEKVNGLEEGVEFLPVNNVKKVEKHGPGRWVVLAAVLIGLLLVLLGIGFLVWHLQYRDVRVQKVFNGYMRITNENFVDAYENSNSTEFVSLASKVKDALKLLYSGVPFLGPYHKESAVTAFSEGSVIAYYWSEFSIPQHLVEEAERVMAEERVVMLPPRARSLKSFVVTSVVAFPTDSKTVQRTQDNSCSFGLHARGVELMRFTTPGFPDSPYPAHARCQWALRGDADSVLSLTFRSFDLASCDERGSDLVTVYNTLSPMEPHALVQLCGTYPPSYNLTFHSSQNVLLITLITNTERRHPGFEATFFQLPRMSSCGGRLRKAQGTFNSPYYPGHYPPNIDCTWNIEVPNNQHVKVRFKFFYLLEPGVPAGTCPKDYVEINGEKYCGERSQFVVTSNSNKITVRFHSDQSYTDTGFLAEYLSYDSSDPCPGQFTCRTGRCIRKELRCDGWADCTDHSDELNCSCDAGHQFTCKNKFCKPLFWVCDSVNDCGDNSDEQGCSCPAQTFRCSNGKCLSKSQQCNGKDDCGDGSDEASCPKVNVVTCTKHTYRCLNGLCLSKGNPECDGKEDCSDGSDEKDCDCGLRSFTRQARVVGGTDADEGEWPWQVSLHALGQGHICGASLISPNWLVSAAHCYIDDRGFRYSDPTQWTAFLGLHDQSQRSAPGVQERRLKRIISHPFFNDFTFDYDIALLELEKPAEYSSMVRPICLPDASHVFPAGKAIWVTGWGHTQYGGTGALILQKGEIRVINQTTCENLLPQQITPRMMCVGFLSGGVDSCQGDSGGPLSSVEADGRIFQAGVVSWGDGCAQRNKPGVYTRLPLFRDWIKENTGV
Sequence of h cathepsin C (P53634 25-463): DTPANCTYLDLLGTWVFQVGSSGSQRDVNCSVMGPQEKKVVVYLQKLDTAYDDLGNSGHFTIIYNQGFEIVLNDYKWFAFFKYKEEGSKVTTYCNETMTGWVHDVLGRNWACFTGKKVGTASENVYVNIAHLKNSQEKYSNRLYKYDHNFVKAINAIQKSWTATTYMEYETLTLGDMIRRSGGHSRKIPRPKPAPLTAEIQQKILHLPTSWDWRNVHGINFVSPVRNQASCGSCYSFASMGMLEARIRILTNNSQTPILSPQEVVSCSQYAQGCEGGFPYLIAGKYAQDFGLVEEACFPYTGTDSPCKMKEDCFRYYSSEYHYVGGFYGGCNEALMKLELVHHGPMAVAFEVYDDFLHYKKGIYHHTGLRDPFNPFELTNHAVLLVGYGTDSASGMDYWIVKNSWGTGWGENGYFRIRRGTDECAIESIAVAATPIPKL

Usually IC50 stands for the concentration that inhibits the measured activity by half. Read a high IC50 as weaker potency. Consider `CN(C)C(=O)COC(=O)Cc1ccc(OC(=O)c2ccc(NC(=N)N)cc2)cc1` [Camostat], for which, in [1], the “Angiosense 680 signal in pancreas (edema imaging)” value is “no signal enhancement”. Further, the “in vivo mPEG-PL-Cy5.5 probe activation in pancreas” value in assay [2] is given as “reduced probe activation”. Also, the “amount of enzymatically active trypsin in pancreas” value with trypsin [3] was “significant reduction in the amount of active trypsin”. Also, the IC50 is more than 50 µM against h cathepsin K; 6.6 µM against h factor Xa; more than 50 µM against h cathepsin S; more than 50 µM on h cathepsin B; 0.531 µM at h factor VIIa; 72.4 µM against h kallikrein 1. Moreover, the IC50 on h neutrophil elastase is 91.4 µM; against h cathepsin C, more than 50 µM; against h cathepsin G, 44.6 µM; on h plasma kallikrein it was 0.002 µM; against h kallikrein 7, 41.5 µM; against h cathepsin L, more than 50 µM. In addition, the IC50 at h factor XIIa was 8 µM; at h matriptase, 0.0065 µM; at h chymase, more than 50 µM; at h proteinase 3, more than 50 µM; against h cationic trypsin, 0.0028 µM; against h kallikrein 5 it was 0.1 µM. For the same compound, the half-inhibitory concentration (IC50) is 0.008 µM against h factor XIa, 12.2 µM against h chymotrypsin and more than 50 µM against h pancreatic elastase. Besides, the “probe activation in dissected pancreas (ex vivo)” value in [4] is on record as “suppressed”.

Take “SPINK1: highly specific trypsin inhibiting protein; endogenous trypsin inhibitor Kazal type 1 (DSLGREAKCYNELNGCTKIYDPVCGTDGNTYPNECVLCFENRKRQTSILIQKSGPC; UniProt P00995 24-79, looked up)”: the “protease activation of mPEG-PL-Cy5.5 probe by trypsin in the presence of SPINK1” value with trypsin [5] is “suppressed to background levels”.
